Results reported in paper doi:10.1101/2024.03.08.583891v2 (biorxiv, 2024).

Target: T1, NMDA receptor histamine site (NMDA(HA)R), native NMDAR of rat hippocampal synaptosomes (Rattus norvegicus, UniProt P35439+Q00960)
Experiment: tissue or organelle
Details: read-out: Intrinsec activity %

T1 sequence (Q00960 27-1482, other chains not shown): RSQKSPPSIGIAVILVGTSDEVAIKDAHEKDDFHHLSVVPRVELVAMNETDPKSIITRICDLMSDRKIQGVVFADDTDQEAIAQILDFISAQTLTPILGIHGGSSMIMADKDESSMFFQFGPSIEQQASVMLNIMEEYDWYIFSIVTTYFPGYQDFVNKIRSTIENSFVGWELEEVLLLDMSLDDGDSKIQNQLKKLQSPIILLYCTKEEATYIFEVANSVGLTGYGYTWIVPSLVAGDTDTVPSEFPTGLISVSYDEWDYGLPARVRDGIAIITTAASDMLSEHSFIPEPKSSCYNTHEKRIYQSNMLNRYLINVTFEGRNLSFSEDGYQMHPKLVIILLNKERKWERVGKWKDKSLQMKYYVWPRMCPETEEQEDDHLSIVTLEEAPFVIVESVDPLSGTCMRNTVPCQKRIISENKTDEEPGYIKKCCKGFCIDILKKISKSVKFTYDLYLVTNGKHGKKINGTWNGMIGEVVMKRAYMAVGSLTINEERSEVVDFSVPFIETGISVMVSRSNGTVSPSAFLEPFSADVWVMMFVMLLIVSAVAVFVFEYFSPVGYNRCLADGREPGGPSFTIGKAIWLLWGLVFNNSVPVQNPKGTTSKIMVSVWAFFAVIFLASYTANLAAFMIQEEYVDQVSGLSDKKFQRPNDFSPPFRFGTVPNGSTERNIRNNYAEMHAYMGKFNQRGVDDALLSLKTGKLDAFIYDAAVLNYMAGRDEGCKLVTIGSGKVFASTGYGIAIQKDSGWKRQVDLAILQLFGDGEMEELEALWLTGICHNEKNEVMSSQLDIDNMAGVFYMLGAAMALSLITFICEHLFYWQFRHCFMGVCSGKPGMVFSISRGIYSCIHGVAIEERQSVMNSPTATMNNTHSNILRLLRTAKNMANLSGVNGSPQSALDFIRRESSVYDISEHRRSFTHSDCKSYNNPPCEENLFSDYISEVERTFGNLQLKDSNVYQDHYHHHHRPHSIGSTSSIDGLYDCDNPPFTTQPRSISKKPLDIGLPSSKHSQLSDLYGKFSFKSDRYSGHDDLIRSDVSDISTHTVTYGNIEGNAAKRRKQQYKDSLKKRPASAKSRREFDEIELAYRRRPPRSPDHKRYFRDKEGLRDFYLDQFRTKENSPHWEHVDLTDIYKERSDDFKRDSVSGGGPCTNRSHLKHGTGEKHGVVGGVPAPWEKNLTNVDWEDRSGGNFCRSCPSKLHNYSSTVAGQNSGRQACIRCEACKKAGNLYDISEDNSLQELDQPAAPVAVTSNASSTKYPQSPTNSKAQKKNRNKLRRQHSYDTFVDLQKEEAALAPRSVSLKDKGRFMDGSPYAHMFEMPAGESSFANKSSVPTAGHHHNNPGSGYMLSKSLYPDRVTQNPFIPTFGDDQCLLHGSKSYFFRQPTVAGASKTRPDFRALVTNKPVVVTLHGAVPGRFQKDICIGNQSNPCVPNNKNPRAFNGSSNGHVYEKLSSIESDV

Compound	Emax [%]
Nc1nc2ccc(CCNCCCCc3ccccc3)cc2s1 [FUBn293]	39

Target: T1, NMDA receptor histamine site (NMDA(HA)R), native NMDAR of rat hippocampal synaptosomes
Experiment: tissue or organelle
Details: read-out: Intrinsec activity %
Remark: another data set of the same source

Compound	Emax [%]
Clc1nc2ccc(CCNCCCCc3ccccc3)cc2s1 [ST 575]	40
CCC(C)(C)NCCc1ccc2nc(N)sc2c1 [Fub 290]	27
CCCCCNCCc1ccc2nc(N)sc2c1 [Fub 287]	30
CCCCCCCNCCc1ccc2nc(N)sc2c1 [Fub 303]	33
CCCCCCCCNCCc1ccc2nc(N)sc2c1 [Fub 304]	33
COc1cc2c(cc1OC)CC(NCC(O)c1ccc(C)cc1)CC2 (stereo not shown) [ST 563]	50
CCCCCCCCCNCCc1ccc2nc(N)sc2c1 [Fub 305]	30
CCCNCCc1ccc2nc(N)sc2c1 [Fub 276]	15
CCCCNCCc1ccc2nc(N)sc2c1 [Fub 286]	31
CCN(CCc1ccccc1)C1CCc2cc(OC)c(OC)cc2C1 (stereo not shown) [ST 577]	25
Sc1nc2ccc(SCCNCCCCc3ccccc3)cc2s1 [ST 576]	38
CCNCCc1ccc2nc(N)sc2c1 [Fub 275]	15
CCCC(C)(C)NCCc1ccc2nc(N)sc2c1 [Fub 291]	32
CC(C)(C)NCCc1ccc2nc(N)sc2c1 [Fub 289]	23
COc1ccc(C(O)CNC2CCc3cc(OC)c(OC)cc3C2)cc1 (stereo not shown) [ST 578]	30
CCCCCCNCCc1ccc2nc(N)sc2c1 [Fub 288]	35

Target: T1, NMDA receptor histamine site (NMDA(HA)R), native NMDAR of rat hippocampal synaptosomes
Experiment: tissue or organelle
Details: read-out: Intrinsec activity %
Remark: another data set of the same source

Compound	Emax [%]
CCN(CC(O)c1ccc(C(F)(F)F)cc1)C1CCc2cc(OC)c(OC)cc2C1 (stereo not shown) [ST 592]	30
CCCNC1CCc2ncsc2C1 (stereo not shown) [ST 581]	50
COc1cc2c(cc1OC)CC(NCC(O)c1ccc(C(F)(F)F)cc1)CC2 (stereo not shown) [ST 590]	30
COc1cc2c(cc1OC)CC(NCC(O)c1ccc(F)cc1)CC2 (stereo not shown) [ST 593]	25

Target: T1, NMDA receptor histamine site (NMDA(HA)R), native NMDAR of rat hippocampal synaptosomes
Experiment: tissue or organelle
Details: read-out: Intrinsec activity %
Remark: another data set of the same source

Compound	Emax [%]
Cc1nc(N)sc1CCCCCN [Fub 238]	50
CCc1nc(N)sc1CCCN [Fub 301]	61
CCc1nc(N)sc1CCCCN [Fub 309]	40
CCc1nc(N)sc1CCN [Fub 240]	82
Cc1nc(N)sc1CCCCN [Fub 217]	52

Target: T1, NMDA receptor histamine site (NMDA(HA)R), native NMDAR of rat hippocampal synaptosomes
Experiment: tissue or organelle
Details: read-out: Intrinsec activity %
Remark: another data set of the same source

Compound	Emax [%]
NCCCCCCc1csc(N)n1 [Fub 239]	23
NCCCCCc1csc(N)n1 [Fub 216]	20
Cc1sc(N)nc1CCCN [Fub 241]	53
Cc1sc(N)nc1CCCCN [Fub 302]	29

Target: T1, NMDA receptor histamine site (NMDA(HA)R), native NMDAR of rat hippocampal synaptosomes
Experiment: tissue or organelle
Details: read-out: Intrinsec activity %
Remark: another data set of the same source

Compound	Emax [%]
NCCc1ccc2nc(N)sc2c1 [Fub 247]	48
NCCc1ccc2nc(N)[se]c2c1 [Fub 300]	45
NCc1ccc2nc(N)sc2c1 [Fub 223]	34

Target: T1, NMDA receptor histamine site (NMDA(HA)R), native NMDAR of rat hippocampal synaptosomes
Experiment: tissue or organelle
Details: read-out: Intrinsec activity %
Remark: another data set of the same source

Compound	Emax [%]
Nc1nc2ccc(CCNCCCCCc3ccccc3)cc2s1 [Fub 306]	33
Nc1nc2ccc(CCNCCCCCCc3ccccc3)cc2s1 [Fub 307]	33
Nc1nc2ccc(CCNCc3ccccc3)cc2s1 [Fub 299]	36
Nc1nc2ccc(CCNCCCc3ccccc3)cc2s1 [Fub 292]	32
COc1ccc(CCNCCc2ccc3nc(N)sc3c2)cc1 [Fub 298]	19
Nc1nc2ccc(CCNCC3CCCCC3)cc2s1 [Fub 266]	48
Nc1nc2ccc(CCNCCc3ccccc3)cc2s1 [Fub 281]	30
Cc1ccc(CCNCCc2ccc3nc(N)sc3c2)cc1 [Fub 297]	32

Target: T1, NMDA receptor histamine site (NMDA(HA)R), native NMDAR of rat hippocampal synaptosomes
Experiment: tissue or organelle
Details: read-out: Intrinsec activity %
Remark: another data set of the same source

Compound	Emax [%]
Nc1nc(C2CCC(N)CC2)cs1 (stereo not shown) [Fub 206]	40
Cc1sc(N)nc1/C=C/CN [Fub 242]	75
NCCCCCc1cnc(N)s1 [Fub 295]	41
NCCCCc1cnc(N)s1 [Fub 218]	81
Nc1nc(C2CCCC(N)C2)cs1 (stereo not shown) [Fub 235]	38
CC1(C)C(C(=O)c2cn(Cc3ccc(F)cc3)c3ccccc23)C1(C)C [Fub 144]	35
NCCCCCCc1cnc(N)s1 [Fub 296]	41
Nc1nc(C2CCC(N)CC2)c[se]1 (stereo not shown) [Fub 210]	33
